The values that follow come from patent publication US10683282B2, “Multi-substituted pyrimidine derivatives with excellent kinase inhibitory activities” (KOREA INSTITUTE OF SCIENCE AND TECHNOLOGY, priority 2018, dated 2020).

pIC50: −log10 of the molar value. Like-named read-outs stand apart in the source and are kept apart here.

For one data set, the system named is Ba/F3 FLT3-ITD. Nature of the data set: Ba/F3 FLT3-ITD growth inhibition. The data set is classed as cell-based. To be noted: Ba/F3 FLT3-ITD cells.
The target in a further data set is T1, JAK2 (Homo sapiens, UniProt O60674).
T1 construct: purchased Reaction Biology Corporation
Nature of the data set: Kinase screening, HotSpot assay (Reaction Biology). In kind it is biochemical. Here is the method:
(§1) Kinase screening was performed using a “HotSpot” assay platform method by Reaction Biology Corporation. The reaction buffer used herein contained 20 mM HEPES (pH 7.5), 10 mM MgCl2, 1 mM EGTA, 0.02% Brij35, 0.02 mg/mL BSA, 0.1 mM Na3VO4, 2 mM DTT and 1% DMSO. The required cofactors were added in accordance with the kinase reaction. Freshly made buffer and cofactors were added at a concentration of 20 μM during the selected enzyme reaction. A solution of the test compound in dimethylsulfoxide (DMSO) was added at a suitable concentration to this solution. In order to initiate reaction, […] (specific activity […]) was added and incubated at room temperature for 2 hours. The test compound was screened at a starting concentration of 20 μM in a 10-dose IC50 mode. IC50 of Staurosporine used as a control drug was obtained at a starting concentration of 20 μM in a 10-dose IC50 mode.

A further data set concerns the target T2, TYRO3/SKY (Homo sapiens, UniProt Q06418).
T2 construct: purchased Reaction Biology Corporation
Nature of the data set: Kinase screening, HotSpot assay (Reaction Biology). In kind it is biochemical. Here is the method:
as §1

Data set [1] concerns the target T3, ARK5/NUAK1 (Homo sapiens, UniProt O60285).
T3 construct: purchased Reaction Biology Corporation
T3 sequence (O60285 1-661): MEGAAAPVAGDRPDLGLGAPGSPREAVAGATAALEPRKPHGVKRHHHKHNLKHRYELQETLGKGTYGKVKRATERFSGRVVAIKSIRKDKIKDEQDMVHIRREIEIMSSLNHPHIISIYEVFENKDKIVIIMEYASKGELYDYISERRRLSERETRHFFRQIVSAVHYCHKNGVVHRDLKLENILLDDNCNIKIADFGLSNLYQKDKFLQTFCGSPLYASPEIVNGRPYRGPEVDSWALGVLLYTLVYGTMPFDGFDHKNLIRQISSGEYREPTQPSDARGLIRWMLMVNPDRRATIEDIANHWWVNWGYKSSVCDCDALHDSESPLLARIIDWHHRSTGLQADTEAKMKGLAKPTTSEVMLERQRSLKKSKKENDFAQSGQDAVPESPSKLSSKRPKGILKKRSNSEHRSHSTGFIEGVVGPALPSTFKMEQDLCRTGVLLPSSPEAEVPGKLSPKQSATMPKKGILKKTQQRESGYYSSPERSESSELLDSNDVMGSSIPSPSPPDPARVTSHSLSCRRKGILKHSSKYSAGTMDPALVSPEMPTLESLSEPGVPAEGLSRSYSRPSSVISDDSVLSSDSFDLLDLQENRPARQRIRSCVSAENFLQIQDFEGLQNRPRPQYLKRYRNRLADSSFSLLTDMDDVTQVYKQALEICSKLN
Nature of the data set: Kinase screening, HotSpot assay (Reaction Biology). In kind it is biochemical. Here is the method: as §1

Another data set concerns the target T4, LRRK2 (Homo sapiens, UniProt Q5S007).
T4 construct: purchased Reaction Biology Corporation
Nature of the data set: Kinase screening, HotSpot assay (Reaction Biology). In kind it is biochemical. Here is the method:
as §1

For a further data set, the target named is T5, JAK1 (Homo sapiens, UniProt P23458).
T5 construct: purchased Reaction Biology Corporation
Nature of the data set: Kinase screening, HotSpot assay (Reaction Biology). In kind it is biochemical. On the procedure: as §1

In another data set the target is T6, PKCmu/PRKD1 (Homo sapiens, UniProt Q15139).
T6 construct: purchased Reaction Biology Corporation
Nature of the data set: Kinase screening, HotSpot assay (Reaction Biology). In kind it is biochemical. On the procedure: as §1

In a further data set the target is T7, AXL (Homo sapiens, UniProt P30530).
T7 construct: purchased Reaction Biology Corporation
Nature of the data set: Kinase screening, HotSpot assay (Reaction Biology). The data set is classed as biochemical. Here is the method: as §1

For another data set, the target named is T8, SIK2 (Homo sapiens, UniProt Q9H0K1).
T8 construct: purchased Reaction Biology Corporation
Nature of the data set: Kinase screening, HotSpot assay (Reaction Biology). The data set is classed as biochemical. On the procedure: as §1

For a further data set, the target named is T9, RET (Homo sapiens, UniProt P07949).
T9 construct: purchased Reaction Biology Corporation
Nature of the data set: Kinase screening, HotSpot assay (Reaction Biology). The data set is classed as biochemical. Here is the method:
as §1

The target of a further data set is T10, c-MER (Homo sapiens, UniProt Q12866).
T10 construct: purchased Reaction Biology Corporation
Nature of the data set: Kinase screening, HotSpot assay (Reaction Biology). The data set is classed as biochemical. Here is the method: as §1

The target in another data set is T11, mLK1/MAP3K9 (Homo sapiens, UniProt P80192).
T11 construct: purchased Reaction Biology Corporation
Nature of the data set: Kinase screening, HotSpot assay (Reaction Biology). In kind it is biochemical. On the procedure:
as §1

A further data set concerns the target T12, JAK3 (Homo sapiens, UniProt P52333).
T12 construct: purchased Reaction Biology Corporation
Nature of the data set: Kinase screening, HotSpot assay (Reaction Biology). In kind it is biochemical. Here is the method:
as §1

The target in a further data set is T13, JAK2(V617F) (Homo sapiens, UniProt O60674, V617F).
T13 construct: purchased Reaction Biology Corporation
Nature of the data set: Kinase screening, HotSpot assay (Reaction Biology). The data set is classed as biochemical. On the procedure: as §1

Another data set has as its target T14, AXL(R499C) (Homo sapiens, UniProt P30530, R499C).
T14 construct: purchased Reaction Biology Corporation
Nature of the data set: Kinase screening, HotSpot assay (Reaction Biology). In kind it is biochemical. Here is the method: as §1

For the next data set, the target named is T15, ACK1 (Homo sapiens, UniProt Q07912).
T15 construct: purchased Reaction Biology Corporation
Nature of the data set: Kinase screening, HotSpot assay (Reaction Biology). The data set is classed as biochemical. On the procedure: as §1

The subject of another data set is K-562 cell line. Nature of the data set: K-562 cell line activity. In kind it is cell-based. To be noted: Homo sapiens, K562.
The subject of the next data set is Ba/F3 parental. Nature of the data set: Ba/F3 parental growth inhibition. In kind it is cell-based. To be noted: Mus musculus, BaF3; Ba/F3 parental cells.
The next data set deals with T16, FLT3 (Homo sapiens, UniProt P36888).
T16 construct: purchased Reaction Biology Corporation
T16 sequence (P36888 27-993): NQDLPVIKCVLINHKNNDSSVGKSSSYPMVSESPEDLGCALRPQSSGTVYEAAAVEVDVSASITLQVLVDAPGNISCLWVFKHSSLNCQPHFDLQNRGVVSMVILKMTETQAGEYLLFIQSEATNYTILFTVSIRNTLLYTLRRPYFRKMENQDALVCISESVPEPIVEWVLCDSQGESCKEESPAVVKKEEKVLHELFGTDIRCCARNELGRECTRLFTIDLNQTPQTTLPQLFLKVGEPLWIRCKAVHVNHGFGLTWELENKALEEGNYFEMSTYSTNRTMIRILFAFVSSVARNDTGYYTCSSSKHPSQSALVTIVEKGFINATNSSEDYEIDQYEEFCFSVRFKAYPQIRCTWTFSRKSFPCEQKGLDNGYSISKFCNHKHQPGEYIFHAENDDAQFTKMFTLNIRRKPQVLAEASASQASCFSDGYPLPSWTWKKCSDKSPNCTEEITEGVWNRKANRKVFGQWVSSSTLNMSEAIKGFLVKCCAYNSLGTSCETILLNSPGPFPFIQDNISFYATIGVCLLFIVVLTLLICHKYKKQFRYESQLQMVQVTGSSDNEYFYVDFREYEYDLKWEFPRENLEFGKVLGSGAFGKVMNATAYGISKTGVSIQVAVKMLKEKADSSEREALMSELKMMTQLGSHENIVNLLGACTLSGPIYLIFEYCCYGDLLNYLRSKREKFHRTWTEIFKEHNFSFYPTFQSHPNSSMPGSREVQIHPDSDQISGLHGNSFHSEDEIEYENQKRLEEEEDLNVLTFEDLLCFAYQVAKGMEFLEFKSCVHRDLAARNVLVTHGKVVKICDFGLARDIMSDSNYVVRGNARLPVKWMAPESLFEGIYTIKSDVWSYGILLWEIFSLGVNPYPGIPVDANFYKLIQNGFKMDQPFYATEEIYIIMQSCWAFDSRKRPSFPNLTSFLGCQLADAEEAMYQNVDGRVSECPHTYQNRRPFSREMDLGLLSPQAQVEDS
Nature of the data set: Kinase screening, HotSpot assay (Reaction Biology). The data set is classed as biochemical. Here is the method:
Kinase screening was performed using a “HotSpot” assay platform method by Reaction Biology Corporation. The reaction buffer used herein contained 20 mM HEPES (pH 7.5), 10 mM MgCl2, 1 mM EGTA, 0.02% Brij35, 0.02 mg/mL BSA, 0.1 mM Na3VO4, 2 mM DTT and 1% DMSO. The required cofactors were added in accordance with the kinase reaction. Freshly made buffer and cofactors were added at a concentration of 20 μM during the selected enzyme reaction. A solution of the test compound in dimethylsulfoxide (DMSO) was added at a suitable concentration to this solution.

A further data set has as its system MV-4-11 cells. Nature of the data set: MV-4-11 cell screening (viable cells by ATP luminescence). The data set is classed as cell-based. To be noted: Homo sapiens, MV4-11, 72 hours incubation, read-out: MV-4-11 cell line (IC50). On the procedure: A control compound was a 1 mM Staurosporine solution in DMSO.
25 μL of culture media containing 2,000 MV-4-11 cells were added and incubated at 37° C. in the presence of 5% CO2 for 72 hours. Then, the culture solution was mixed in an orbital shaker for 2 minutes and incubated at room temperature for 15 minutes. […] IC50 values are measured using the GraphPad Prism 4 program in accordance with the sigmoidal dose-response equation.

The target in another data set is CYP 1A2 (Homo sapiens, UniProt P05177). Nature of the data set: CYP450 assay (luminescence). In kind it is in vitro ADME. Conditions: compound at 10 μM. On the procedure:
(§2) Compound 5 and a positive control stock solution were diluted with water to prepare a 40 μM working solution, and a solution containing an enzyme and a substrate was prepared using water and buffer. Compound 5/control/positive control and the solution were each dispensed on a 96-well and preincubated at 37° C. for 10 minutes. The resulting substance was reacted with NADPH for 20 minutes at 37° C. and a detection reagent was added to terminate the reaction. After stabilization at room temperature for 20 minutes, a luminescence signal was measured.

In data set [2] the target is T3, ARK5/NUAK1. To be noted: comparative values quoted in text, source not stated; read-out: ARK5/NUAK1 IC50 of comparative compounds; cited from earlier work.
The target in a further data set is CYP 2C19 (Homo sapiens, UniProt P33261). Nature of the data set: CYP450 assay (luminescence). The data set is classed as in vitro ADME. Conditions: control compound at 100 μM, read-out: inhibitory activity against human CYP 2C19. On the procedure: The resulting substance was reacted with NADPH for 20 minutes at 37° C. and a detection reagent was added to terminate the reaction. After stabilization at room temperature for 20 minutes, a luminescence signal was measured.

The target of another data set is CYP 3A4 (Homo sapiens, UniProt P08684). Nature of the data set: CYP450 assay (luminescence). In kind it is in vitro ADME. Conditions: compound at 10 μM, read-out: inhibitory activity against human CYP 3A4. Here is the method:
as §2

T13 sequence (O60674 whole entry V617F): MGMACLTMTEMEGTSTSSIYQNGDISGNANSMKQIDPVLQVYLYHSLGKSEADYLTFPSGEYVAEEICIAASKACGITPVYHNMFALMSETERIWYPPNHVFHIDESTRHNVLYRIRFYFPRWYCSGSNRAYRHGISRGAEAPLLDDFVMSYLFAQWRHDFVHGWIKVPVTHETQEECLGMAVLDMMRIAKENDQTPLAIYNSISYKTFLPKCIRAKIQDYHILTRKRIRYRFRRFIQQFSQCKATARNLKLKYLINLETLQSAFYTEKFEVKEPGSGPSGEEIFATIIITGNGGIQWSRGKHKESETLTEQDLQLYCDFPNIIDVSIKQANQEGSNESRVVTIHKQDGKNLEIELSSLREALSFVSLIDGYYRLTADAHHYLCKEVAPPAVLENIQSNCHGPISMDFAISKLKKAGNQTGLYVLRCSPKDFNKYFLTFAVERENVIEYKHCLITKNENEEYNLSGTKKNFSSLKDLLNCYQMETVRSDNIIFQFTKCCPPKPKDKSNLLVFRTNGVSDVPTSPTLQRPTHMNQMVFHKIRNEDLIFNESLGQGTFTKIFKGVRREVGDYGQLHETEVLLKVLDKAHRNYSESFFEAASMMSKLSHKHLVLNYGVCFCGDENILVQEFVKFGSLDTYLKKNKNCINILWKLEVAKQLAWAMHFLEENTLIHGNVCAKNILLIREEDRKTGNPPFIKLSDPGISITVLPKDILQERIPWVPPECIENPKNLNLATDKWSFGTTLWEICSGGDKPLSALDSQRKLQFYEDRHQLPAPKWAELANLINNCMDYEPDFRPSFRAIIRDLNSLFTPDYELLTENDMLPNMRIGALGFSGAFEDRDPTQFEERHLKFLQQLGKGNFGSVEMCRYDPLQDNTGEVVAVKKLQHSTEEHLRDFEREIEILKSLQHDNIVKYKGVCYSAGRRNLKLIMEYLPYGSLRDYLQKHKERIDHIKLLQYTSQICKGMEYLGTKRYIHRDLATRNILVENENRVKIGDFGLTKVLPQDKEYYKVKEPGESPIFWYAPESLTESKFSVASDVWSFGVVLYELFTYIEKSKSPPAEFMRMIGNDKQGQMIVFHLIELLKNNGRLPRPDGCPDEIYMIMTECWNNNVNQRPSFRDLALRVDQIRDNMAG
T1 sequence (O60674 whole entry): as the sequence (O60674 whole entry V617F) above, with F617V counted along it
T5 sequence (P23458 whole entry): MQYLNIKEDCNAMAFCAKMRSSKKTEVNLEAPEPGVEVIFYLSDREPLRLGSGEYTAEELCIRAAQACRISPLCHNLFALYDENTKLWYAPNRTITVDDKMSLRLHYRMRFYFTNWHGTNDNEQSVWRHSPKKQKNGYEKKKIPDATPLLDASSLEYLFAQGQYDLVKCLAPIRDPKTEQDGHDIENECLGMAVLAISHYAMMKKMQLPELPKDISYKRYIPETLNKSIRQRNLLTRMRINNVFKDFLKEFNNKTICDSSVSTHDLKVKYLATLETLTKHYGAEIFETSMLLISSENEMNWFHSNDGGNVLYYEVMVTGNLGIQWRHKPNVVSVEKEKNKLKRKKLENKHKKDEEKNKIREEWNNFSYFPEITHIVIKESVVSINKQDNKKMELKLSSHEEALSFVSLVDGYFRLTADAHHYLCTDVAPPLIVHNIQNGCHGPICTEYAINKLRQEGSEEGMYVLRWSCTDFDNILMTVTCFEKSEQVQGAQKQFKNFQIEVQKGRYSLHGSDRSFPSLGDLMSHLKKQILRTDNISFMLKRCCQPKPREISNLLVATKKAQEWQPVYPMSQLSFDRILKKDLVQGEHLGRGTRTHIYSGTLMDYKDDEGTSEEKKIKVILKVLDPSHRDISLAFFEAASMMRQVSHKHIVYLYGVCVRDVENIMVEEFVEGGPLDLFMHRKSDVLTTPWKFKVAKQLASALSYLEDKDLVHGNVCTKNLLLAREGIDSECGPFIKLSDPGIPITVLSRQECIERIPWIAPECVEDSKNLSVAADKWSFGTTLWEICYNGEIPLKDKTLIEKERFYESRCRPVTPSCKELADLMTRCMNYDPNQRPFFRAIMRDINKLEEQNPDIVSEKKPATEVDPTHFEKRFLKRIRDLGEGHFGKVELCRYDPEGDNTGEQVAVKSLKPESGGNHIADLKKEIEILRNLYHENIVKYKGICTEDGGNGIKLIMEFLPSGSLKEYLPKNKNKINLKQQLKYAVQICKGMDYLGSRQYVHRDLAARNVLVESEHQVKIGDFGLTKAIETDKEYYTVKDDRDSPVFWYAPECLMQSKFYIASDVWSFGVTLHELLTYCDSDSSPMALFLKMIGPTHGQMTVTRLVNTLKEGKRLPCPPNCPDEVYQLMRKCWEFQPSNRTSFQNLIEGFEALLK
T15 sequence (Q07912 whole entry): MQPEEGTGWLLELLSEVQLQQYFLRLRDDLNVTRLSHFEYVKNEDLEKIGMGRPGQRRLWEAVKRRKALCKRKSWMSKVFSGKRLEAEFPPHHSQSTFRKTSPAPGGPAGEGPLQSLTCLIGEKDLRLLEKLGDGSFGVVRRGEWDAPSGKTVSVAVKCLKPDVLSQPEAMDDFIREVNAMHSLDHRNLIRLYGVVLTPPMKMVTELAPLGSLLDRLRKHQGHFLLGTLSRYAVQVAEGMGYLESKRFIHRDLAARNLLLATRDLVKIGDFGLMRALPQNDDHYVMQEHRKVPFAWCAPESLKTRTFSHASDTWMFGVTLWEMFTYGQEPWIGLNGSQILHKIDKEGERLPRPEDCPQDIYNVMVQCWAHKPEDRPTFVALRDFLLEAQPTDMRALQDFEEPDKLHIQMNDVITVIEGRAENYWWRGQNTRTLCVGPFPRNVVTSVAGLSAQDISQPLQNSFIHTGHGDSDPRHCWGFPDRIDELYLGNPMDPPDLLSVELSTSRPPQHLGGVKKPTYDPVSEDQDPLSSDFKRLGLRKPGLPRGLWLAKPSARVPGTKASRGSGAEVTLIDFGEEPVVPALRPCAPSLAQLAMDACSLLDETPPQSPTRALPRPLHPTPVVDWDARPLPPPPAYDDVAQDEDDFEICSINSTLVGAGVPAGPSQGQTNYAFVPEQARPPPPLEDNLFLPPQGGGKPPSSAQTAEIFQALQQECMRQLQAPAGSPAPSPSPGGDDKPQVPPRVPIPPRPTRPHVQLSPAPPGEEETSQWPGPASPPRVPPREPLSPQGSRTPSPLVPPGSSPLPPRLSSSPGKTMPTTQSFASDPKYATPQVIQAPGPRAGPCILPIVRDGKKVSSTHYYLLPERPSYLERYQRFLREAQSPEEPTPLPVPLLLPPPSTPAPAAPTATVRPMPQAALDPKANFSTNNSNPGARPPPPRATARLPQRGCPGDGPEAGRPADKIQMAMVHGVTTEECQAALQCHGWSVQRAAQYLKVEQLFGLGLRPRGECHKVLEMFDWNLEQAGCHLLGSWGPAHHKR
T6 sequence (Q15139 whole entry): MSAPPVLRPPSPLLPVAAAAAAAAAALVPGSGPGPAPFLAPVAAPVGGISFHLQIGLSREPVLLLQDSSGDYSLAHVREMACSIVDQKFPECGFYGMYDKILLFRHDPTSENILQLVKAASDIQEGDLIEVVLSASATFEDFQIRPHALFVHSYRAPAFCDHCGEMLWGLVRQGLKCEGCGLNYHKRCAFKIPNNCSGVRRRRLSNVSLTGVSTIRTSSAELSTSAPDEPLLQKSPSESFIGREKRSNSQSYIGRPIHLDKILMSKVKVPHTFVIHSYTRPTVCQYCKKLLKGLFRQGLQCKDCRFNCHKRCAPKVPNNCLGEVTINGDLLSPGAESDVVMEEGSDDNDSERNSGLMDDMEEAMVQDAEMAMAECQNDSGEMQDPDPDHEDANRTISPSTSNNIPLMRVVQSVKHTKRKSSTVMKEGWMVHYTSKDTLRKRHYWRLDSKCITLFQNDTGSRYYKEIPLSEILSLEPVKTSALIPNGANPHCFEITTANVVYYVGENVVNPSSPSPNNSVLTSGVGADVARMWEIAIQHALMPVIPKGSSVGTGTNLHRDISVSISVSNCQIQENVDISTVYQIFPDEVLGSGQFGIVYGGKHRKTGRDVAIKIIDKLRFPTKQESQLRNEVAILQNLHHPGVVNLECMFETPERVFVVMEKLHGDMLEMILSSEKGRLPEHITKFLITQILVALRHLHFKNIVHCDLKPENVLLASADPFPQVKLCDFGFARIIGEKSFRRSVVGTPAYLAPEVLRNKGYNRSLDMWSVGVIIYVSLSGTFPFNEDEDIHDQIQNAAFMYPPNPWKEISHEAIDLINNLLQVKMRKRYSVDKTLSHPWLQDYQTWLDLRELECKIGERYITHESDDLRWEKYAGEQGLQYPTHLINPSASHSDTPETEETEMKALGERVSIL
CYP 3A4, sequence (P08684 whole entry): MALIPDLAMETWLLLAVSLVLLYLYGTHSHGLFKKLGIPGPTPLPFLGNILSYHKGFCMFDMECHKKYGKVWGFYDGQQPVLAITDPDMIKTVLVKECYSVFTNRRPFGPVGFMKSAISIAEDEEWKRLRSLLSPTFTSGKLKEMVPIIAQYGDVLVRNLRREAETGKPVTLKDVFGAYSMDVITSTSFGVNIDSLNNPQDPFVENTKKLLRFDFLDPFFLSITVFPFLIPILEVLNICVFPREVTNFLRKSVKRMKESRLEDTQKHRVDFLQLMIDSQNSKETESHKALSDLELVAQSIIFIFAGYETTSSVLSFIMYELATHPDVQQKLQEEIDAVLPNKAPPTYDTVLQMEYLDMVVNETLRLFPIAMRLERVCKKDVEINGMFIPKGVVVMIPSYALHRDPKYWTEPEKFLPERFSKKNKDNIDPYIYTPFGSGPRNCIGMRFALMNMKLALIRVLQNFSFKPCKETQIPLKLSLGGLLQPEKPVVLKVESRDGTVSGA

For orientation: GI50 means the concentration giving 50% growth inhibition. As for `Cc1cnc(Nc2ccc(OCCN3CCCC3)cc2)nc1NCc1ccco1` [Compound 1, 4-(furan-2-yl)methylamino-5-methyl-2-[4-{2-(pyrrolidin-1-yl)ethoxy}phenylamino]pyrimidine], the GI50 with Ba/F3 FLT3-ITD amounted to 92 nM; in the data set with Ba/F3 parental, 1790 nM. For the same compound, the pIC50 against JAK2 was 7.30; at TYRO3/SKY, 4.97; against ARK5/NUAK1 [1], 8.23; at LRRK2, 6.95; against JAK1, 7.30; against PKCmu/PRKD1 it was 6.78. The pIC50 on AXL was 6.35; at SIK2, 6.98; on RET it was 6.31; on c-MER it was 4.84; at mLK1/MAP3K9, 6.83; at JAK3, 6.68. The pIC50 against JAK2(V617F) was 7.02; on AXL(R499C), 6.68; against ACK1, 7.41; in the data set on K-562 cell line, 5.29; on FLT3, 7.99; in the data set on MV-4-11 cells, 7.18.

In the case of `Fc1cnc(Nc2ccc(OCCN3CCCC3)cc2)nc1NCc1ccco1` [Compound 20, 4-(furan-2-yl) methylamino-5-fluoro-2-[4-{2-(pyrrolidin-1-yl)ethoxy}phenylamino]pyrimidine], the GI50 in the data set with Ba/F3 FLT3-ITD worked out at 178 nM; with Ba/F3 parental, 6670 nM. The pIC50 was 7.00 on JAK2; 7.28 against ARK5/NUAK1 [1]; 6.75 at JAK1; 6.62 against JAK2(V617F); 7.00 against ACK1; 7.66 against FLT3.

Consider αα-naphthoflavone [reference compound], for which the “inhibitory activity against human CYP 1A2” value on CYP 1A2 was 97.7.

`Cc1nc(Nc2cnn(C3CCNCC3)c2)nc2c1N(C)C(=O)c1cc3ccccc3cc1N2C` [HTH-01-015]: the pIC50 on ARK5/NUAK1 [2] was 7.00.

As for `CN(C)CCC=C1c2ccccc2CCc2ccccc21` [amitriptyline, reference compound], the inhibition at 20 min, 100 µM at CYP 2C19 was 88%.

For the compound `CC(=O)N1CCN(c2ccc(OCC3COC(Cn4ccnc4)(c4ccc(Cl)cc4Cl)O3)cc2)CC1` (stereo not shown) [ketoconazole, reference compound], the inhibition at 20 min, 10 µM at CYP 3A4 was determined as 98.7%.

As for `FC(F)(F)c1cnc(Nc2ccc(OCCN3CCCC3)cc2)nc1NCc1ccco1` [Compound 21, 4-(furan-2-yl) methylamino-5-trifluoromethyl-2-[4-{2-(pyrrolidin-1-yl)ethoxy}phenylamino]pyrimidine], the GI50 in the data set with Ba/F3 FLT3-ITD amounted to 558 nM; in the data set with Ba/F3 parental it was 8060 nM.
